The source made the active and inactive calls.
Assays:
Nonstructural protein 1 = Nonstructural protein 1 (Influenza A virus, UniProt Q194T2); type: functional, Influenza A virus (A/California/07/2009(H1N1))
[1] = molecular target: T1, Short transient receptor potential channel 4 (Mus musculus, UniProt Q9QUQ5); experiment: calcium entry via TRPC4 opening agents – cell-based, HEK293 TRPC4/mu-opioid, Fluo-4 calcium, dose response (AID 434937); type: functional
T1 sequence (Q9QUQ5 whole entry): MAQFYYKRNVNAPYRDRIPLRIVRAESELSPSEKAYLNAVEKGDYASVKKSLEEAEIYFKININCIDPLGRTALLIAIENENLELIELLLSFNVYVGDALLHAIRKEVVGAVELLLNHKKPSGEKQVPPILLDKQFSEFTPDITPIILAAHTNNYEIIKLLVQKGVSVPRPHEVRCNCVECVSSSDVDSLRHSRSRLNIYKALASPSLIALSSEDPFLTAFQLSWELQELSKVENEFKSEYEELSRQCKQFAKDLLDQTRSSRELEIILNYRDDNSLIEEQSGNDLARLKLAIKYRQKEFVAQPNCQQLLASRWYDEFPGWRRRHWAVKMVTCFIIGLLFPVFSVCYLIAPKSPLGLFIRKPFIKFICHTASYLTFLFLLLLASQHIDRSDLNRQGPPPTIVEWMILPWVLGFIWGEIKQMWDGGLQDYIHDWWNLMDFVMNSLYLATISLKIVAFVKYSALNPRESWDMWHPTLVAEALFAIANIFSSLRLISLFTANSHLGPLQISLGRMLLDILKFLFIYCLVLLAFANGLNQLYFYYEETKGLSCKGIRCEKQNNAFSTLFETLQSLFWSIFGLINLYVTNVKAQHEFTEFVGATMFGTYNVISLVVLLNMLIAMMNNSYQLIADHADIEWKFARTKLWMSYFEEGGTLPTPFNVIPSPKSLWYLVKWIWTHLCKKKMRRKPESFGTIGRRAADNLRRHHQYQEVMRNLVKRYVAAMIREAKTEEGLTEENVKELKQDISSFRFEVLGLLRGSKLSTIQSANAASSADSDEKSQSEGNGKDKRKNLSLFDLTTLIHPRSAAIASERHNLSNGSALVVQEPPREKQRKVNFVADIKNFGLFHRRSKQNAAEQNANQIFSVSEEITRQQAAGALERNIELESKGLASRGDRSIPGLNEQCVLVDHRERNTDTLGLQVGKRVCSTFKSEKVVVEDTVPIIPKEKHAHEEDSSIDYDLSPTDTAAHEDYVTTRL

[2] = fluconazole-exposed Candida albicans growth modulators – fluorescence, retest, confirmation (AID 2467); type: functional, cell-based
[3] = NIH-3T3 fibroblast cytotoxicity, dose response, cytotoxicity control, cell-based, fluorescence, Alamar Blue, secondary assay (AID 2327); type: functional;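 also: NIH-3T3 mouse fibroblasts cultured with fluconazole at 8 µg/mL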
HEK293 [4] = experiment: cells; conditions: Homo sapiens
HEK293 [5] = experiment: cells; conditions: Homo sapiens; remark: listed apart in the source
cells [6] = type: functional, cell-based
cells [7] = type: functional, cell-based; remark: listed apart in the source
[8] = molecular target: Glyceraldehyde-3-phosphate dehydrogenase (Homo sapiens, UniProt P04406)
Aminopeptidase N = molecular target: T2, Aminopeptidase N (Plasmodium falciparum FcB1/Columbia, UniProt O96935); experiment: malaria alanyl aminopeptidase activity blockers – biochemical, fluorogenic H-Leu-NHMec substrate, 1536-well (AID 1445); design: species or system Plasmodium falciparum 3D7, 3D7
T2 sequence (O96935 whole entry): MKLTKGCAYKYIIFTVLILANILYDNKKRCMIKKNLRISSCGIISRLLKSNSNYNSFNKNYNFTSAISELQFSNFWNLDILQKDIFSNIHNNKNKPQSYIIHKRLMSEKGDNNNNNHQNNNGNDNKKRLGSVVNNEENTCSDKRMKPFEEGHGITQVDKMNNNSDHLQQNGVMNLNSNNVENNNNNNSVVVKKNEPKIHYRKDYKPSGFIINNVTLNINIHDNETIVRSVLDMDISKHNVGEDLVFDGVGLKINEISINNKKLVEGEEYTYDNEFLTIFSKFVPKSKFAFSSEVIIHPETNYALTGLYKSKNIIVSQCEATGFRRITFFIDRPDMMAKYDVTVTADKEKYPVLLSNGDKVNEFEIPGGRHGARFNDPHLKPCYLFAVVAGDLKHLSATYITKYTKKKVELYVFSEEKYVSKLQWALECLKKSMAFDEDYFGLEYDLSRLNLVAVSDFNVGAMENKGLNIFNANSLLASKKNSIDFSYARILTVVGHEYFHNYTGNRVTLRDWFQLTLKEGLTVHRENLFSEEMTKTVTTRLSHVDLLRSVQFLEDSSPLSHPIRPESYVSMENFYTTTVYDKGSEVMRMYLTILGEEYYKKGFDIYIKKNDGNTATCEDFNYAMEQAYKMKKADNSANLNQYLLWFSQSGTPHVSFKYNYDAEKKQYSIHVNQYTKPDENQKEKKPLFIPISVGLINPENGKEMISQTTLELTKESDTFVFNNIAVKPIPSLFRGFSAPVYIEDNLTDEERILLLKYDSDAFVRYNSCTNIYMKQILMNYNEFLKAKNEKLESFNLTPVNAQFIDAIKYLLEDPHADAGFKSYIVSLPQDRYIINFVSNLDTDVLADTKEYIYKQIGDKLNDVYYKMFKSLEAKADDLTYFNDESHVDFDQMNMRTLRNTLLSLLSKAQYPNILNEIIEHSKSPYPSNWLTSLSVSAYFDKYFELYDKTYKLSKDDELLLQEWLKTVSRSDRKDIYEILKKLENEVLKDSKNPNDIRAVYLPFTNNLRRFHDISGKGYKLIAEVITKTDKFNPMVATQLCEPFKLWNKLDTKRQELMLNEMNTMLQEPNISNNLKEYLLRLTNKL

[9] = molecular target: T3, Sentrin-specific protease 8 (Homo sapiens, UniProt Q96LD8); type: functional;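 also: luminescence read-out of SENP8 inhibition, dose-response confirmation following an ultra-high-throughput screen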
T3 sequence (Q96LD8 whole entry): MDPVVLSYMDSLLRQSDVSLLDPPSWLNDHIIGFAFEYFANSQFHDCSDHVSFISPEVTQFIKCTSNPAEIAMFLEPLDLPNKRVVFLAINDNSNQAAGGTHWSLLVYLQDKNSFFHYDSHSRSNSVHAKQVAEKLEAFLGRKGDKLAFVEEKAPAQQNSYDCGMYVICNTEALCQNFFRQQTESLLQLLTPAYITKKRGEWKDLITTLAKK

[10] = molecular target: T4, Sentrin-specific protease 7 (Homo sapiens, UniProt Q9BQF6); type: functional;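 also: Luminescence-based dose-response confirmation of ultra-high-throughput screening hits, measuring inhibition of SENP7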
T4 sequence (Q9BQF6 whole entry): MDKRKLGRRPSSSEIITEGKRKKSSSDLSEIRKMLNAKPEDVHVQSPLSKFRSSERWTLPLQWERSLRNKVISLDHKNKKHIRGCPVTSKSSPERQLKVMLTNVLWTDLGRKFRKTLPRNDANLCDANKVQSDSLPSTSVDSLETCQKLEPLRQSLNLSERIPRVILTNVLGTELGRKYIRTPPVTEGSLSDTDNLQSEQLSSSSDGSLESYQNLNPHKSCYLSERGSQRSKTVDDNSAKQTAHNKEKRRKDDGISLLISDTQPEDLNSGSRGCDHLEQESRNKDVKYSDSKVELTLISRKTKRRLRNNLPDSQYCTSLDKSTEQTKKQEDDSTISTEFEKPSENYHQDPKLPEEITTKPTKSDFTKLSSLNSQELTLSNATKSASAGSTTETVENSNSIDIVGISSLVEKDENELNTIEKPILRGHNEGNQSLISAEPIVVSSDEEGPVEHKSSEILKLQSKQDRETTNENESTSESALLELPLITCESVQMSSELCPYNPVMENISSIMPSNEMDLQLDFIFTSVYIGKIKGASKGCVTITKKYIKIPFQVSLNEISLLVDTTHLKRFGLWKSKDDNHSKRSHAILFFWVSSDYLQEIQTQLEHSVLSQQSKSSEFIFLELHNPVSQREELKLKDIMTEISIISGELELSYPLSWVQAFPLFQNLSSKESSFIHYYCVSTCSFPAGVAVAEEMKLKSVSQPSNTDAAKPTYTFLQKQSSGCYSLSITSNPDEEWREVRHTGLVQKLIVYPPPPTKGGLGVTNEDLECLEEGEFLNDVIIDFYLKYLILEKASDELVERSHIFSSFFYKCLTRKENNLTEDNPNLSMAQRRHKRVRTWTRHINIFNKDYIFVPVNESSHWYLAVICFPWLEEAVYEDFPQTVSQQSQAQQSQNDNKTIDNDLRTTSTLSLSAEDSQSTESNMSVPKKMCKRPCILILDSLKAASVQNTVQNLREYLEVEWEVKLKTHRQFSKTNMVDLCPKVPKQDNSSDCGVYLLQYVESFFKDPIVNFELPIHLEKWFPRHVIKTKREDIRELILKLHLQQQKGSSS

[11] = molecular target: T5, Sentrin-specific protease 6 (Homo sapiens, UniProt Q9GZR1); type: functional;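 also: Luminescence-based dose-response confirmatory assay of SENP6 inhibition, following up an ultra-high-throughput screen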
T5 sequence (Q9GZR1 whole entry): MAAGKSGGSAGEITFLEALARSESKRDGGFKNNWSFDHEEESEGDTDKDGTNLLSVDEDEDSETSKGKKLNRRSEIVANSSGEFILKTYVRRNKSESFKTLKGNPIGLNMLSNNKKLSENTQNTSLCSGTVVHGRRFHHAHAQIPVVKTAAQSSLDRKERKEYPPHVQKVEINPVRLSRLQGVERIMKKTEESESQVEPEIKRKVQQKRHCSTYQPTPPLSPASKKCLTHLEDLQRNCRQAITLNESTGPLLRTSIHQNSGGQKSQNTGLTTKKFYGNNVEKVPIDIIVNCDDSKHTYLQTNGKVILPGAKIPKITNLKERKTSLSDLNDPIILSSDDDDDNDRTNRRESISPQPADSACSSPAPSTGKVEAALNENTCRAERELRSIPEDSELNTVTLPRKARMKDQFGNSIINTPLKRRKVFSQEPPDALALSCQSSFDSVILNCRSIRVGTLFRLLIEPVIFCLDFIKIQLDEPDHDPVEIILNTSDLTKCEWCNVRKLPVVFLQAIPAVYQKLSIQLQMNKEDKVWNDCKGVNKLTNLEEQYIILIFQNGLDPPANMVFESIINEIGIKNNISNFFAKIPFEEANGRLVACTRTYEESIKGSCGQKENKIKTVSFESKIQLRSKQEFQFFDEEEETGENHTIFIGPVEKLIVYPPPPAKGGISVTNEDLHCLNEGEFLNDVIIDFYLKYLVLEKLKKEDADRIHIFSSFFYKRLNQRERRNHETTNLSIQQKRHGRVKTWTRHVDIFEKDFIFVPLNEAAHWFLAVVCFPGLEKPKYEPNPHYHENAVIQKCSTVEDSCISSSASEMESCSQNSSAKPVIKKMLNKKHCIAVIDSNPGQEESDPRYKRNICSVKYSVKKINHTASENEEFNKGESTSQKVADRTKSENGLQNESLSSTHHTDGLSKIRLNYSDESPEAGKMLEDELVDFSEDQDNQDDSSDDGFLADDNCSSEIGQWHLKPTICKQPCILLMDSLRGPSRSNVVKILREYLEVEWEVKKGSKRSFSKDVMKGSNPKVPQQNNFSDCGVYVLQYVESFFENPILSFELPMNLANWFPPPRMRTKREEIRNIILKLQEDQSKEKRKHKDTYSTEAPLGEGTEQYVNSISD

[12] = molecular target: T6, Polyadenylate-binding protein 1 (Homo sapiens, UniProt P11940); experiment: MLLE domain peptide-binding blockers, IC50 – biochemical, fluorescence polarization, FITC-PAM2 peptide, dose response (AID 602259); type: functional; conditions: read-out: IC50_Mean
INS1 = experiment: INS-1E survival protection against cytokine death – cell-based, luminescence, retest, dose response (AID 449756); type: functional; conditions: Rattus norvegicus;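 also: cell death triggered by IL-1 beta plus TNF-alpha plus IFN-gamma mixture; protective hits raise ATP signal compared with cytokine alone wells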
[13] = molecular target: T6, Polyadenylate-binding protein 1; experiment: MLLE binding blockers, Cy5 peptide tracer – biochemical, fluorescence polarization, Cy5-PAM2 peptide, secondary, miRNA deadenylation inhibitor project, dose response (AID 602260); type: functional; conditions: read-out: IC50_Mean

T6 sequence (P11940 whole entry, the tested form may be a part): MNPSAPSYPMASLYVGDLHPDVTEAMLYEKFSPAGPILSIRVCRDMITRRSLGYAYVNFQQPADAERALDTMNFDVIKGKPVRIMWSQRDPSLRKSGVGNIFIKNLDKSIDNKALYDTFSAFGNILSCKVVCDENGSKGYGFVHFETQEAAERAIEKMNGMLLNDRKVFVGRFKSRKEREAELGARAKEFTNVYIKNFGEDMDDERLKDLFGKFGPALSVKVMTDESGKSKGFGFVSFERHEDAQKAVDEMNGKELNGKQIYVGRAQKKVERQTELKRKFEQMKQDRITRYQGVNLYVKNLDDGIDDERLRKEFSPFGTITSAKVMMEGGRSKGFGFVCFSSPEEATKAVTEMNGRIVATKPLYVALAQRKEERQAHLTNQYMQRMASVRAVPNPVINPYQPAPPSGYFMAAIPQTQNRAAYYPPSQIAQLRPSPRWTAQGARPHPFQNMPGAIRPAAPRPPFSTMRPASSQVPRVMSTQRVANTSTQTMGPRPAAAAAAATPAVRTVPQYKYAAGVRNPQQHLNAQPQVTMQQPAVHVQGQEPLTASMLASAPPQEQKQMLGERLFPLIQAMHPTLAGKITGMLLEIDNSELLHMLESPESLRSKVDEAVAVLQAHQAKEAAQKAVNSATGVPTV
Nonstructural protein 1, sequence (Q194T2 whole entry): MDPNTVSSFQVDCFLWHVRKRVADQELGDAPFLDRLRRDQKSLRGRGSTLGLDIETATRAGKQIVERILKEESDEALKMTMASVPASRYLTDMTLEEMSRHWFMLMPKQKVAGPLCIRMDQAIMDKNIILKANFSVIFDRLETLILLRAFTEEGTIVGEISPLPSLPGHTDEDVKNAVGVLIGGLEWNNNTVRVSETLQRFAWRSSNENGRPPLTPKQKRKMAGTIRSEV
Glyceraldehyde-3-phosphate dehydrogenase, sequence (P04406 whole entry): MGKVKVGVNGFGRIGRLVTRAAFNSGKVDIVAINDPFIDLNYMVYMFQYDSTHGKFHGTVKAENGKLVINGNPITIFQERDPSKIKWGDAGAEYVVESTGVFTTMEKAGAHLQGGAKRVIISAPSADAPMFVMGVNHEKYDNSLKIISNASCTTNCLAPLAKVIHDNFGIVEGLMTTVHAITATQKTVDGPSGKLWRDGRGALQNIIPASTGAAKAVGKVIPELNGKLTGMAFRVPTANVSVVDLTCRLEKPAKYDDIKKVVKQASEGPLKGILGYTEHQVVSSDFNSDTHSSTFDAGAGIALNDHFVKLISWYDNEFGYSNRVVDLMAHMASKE

CC1(C)OC(c2ccccc2)=C/C(=C/C=C2C(=O)c3ccccc3C2=O)O1
IC50 (Nonstructural protein 1): 6.6 µM (active)

COc1cccc(CN2CCNC(=O)C2CC(=O)N(C)CCc2ccccn2)c1 (stereo unspecified)
EC50 [1]: 4.73 µM (active)

Fc1cccc(-n2cc(-c3ccccc3)c3c(S)ncnc32)c1
EC50 [2]: 8.62 µM (active)
EC50 [3]: > 150 µM (inactive)
EC50 (HEK293 [4]): > 59.6 µM (inactive)
EC50 (HEK293 [5]): > 59.6 µM (inactive)

COc1ccc(CCN(C)c2ccc(S(=O)(=O)N3CCCC3)cc2[N+](=O)[O-])cc1OC
EC50 (HEK293 [4]): > 59.7 µM (inactive)
EC50 (HEK293 [5]): > 59.7 µM (inactive)

COC(=O)C1=C(C)N(C)C(=O)NC1c1cc(Cl)c(O)c(OC)c1 (stereo unspecified)
EC50 (cells [6]): > 350 µM (not active)
EC50 (cells [7]): > 350 µM (not active)
EC50 (HEK293 [4]): > 59.6 µM (inactive)
EC50 (HEK293 [5]): > 59.6 µM (inactive)

Cc1nnc(SCC(=O)Nc2ccc(O)c(C(=O)O)c2)s1
IC50 [8]: > 100 µM (not active)

OCCNCCSc1ccc(Cl)cc1
EC50 [1]: 1.5 µM (active)

CCCCN(CC)C(=O)CSc1nc2c(sc(=S)n2-c2ccc(OCC)cc2)c(=O)[nH]1
IC50 (Aminopeptidase N): 38.8 µM (active)

Cc1ccc(S(=O)(=O)N(C)C)cc1NC(=O)Nc1c(-c2ccccc2)noc1C
IC50 (Aminopeptidase N): 12.9 µM (active)

COc1ccc(C(N)=NOC(=O)CSc2ccccc2)cc1
IC50 [9]: 12.8 µM (active)
IC50 [10]: 5.98 µM (active)
IC50 [11]: 28 µM (active)

CN(C)C(CNC(=O)CSc1nc2sc3c(c2c(=O)n1C)CCCC3)c1ccccc1 (stereo unspecified)
EC50 (HEK293 [4]): > 59.6 µM (inactive)
EC50 (HEK293 [5]): > 59.6 µM (inactive)

COc1ccc(O)c(/C=N/NC(=S)Nc2cccnc2)c1
IC50 [12]: > 66 µM (inactive)
AC50 (INS1): 1.56 µM (active)
IC50 [13]: > 66 µM (inactive)
IC50 (Nonstructural protein 1): 3.04 µM (active)

O=C(O)C(Cc1ccccc1)/N=C/c1c(O)oc2ccccc2c1=O (stereo unspecified)
IC50 (Aminopeptidase N): 20.6 µM (active)

— ChEMBL document CHEMBL1201862, “PubChem BioAssay data set” (2004)
